The target in series [1] is T1, 20566-CC (NanA-DSM20566) (Streptococcus pneumoniae, UniProt P62576, I442V). Conditions: read-out: 20566-CC-KGV; MES, 4 mM CaCl2, pH 6.5, room temperature.
The target of series [2] is 20566-CC (NanA-DSM20566) (Streptococcus pneumoniae, UniProt P62576, K440R/G441A/I442V). Conditions: read-out: 20566-CC-RAV; MES, 4 mM CaCl2, pH 6.5, room temperature.
Series [3] concerns the target 20566-CC (NanA-DSM20566) (Streptococcus pneumoniae, UniProt P62576, DEL440-442). Conditions: read-out: 20566-CC-ΔKGI; MES, 4 mM CaCl2, pH 6.5, room temperature.
The target in another series is T2, 20566-LC (NanA-DSM20566) (Streptococcus pneumoniae, UniProt P62576).
T2 construct: lectin (CBM40) + catalytic domains, residues 116-833, N-terminal 6xHis (pET-28a), ~84 kDa, E. coli BL21(DE3), cobalt column
Description: chemiluminescence NA-Star assay. In kind it is biochemical. The following applies: read-out: 50% inhibitory concentration (μM) ^a / DANA. The text has this:
chemiluminescence NA-Star assay on 20566-LC (NanA-DSM20566)

In series [4] the target is 20566-CC (NanA-DSM20566) (Streptococcus pneumoniae, UniProt P62576, G441A/I442V/K440R). Description: biochemical.
The target of series [5] is T1, 20566-CC (NanA-DSM20566). As to the kind of experiment: biochemical.
In series [6] the target is T3, 20566-CC (NanA-DSM20566) (Streptococcus pneumoniae, UniProt P62576).
T3 construct: catalytic domain only, residues 311-833 (523 aa), N-terminal 6xHis (pET-28a), ~62 kDa, E. coli BL21(DE3); catalytic domain printed as identical to CF8919
Description: chemiluminescence NA-Star assay. Conditions: read-out: 50% inhibitory concentration (μM) ^a / DANA. In kind it is biochemical. The text has this:
chemiluminescence NA-Star assay on 20566-CC (NanA-DSM20566)

The test system of series [7] is CC(=O)N[C@H]1[C@H]([C@H](O)[C@H](O)CO)O[C@@](Oc2ccc3c(C)cc(=O)oc3c2)(C(=O)O)C[C@@H]1O. As to the kind of experiment: purified protein. Conditions: pH 6.5.
For series [8] the test system is unchanged. As to the kind of experiment: purified protein. The following applies: pH 6.5. The source holds these as a separate data set.

Take `CC(=O)N[C@H]1[C@H]([C@H](O)[C@H](O)CO)O[C@@](Oc2ccc3c(C)cc(=O)oc3c2)(C(=O)O)C[C@@H]1O` [MUNANA, 2′-(4-methylumbelliferyl)-a-D-N-acetylneuraminic acid]: the Km was 32.8 ± 4.78 µM on 20566-CC (NanA-DSM20566) [1], 17.9 ± 1.07 µM on 20566-CC (NanA-DSM20566) [2] and greater than 1000 µM on 20566-CC (NanA-DSM20566) [3].

As for `CC(=O)N[C@H]1[C@H]([C@H](O)[C@H](O)CO)OC(C(=O)O)=C[C@@H]1O` [DANA, 2,3-dehydro-2-deoxy-N-acetylneuraminic acid], the IC50 on 20566-LC (NanA-DSM20566) is 3.8 ± 0.5 µM; against 20566-CC (NanA-DSM20566) [4] it was 0.92 ± 0.71 µM; against 20566-CC (NanA-DSM20566) [5] it was 4.56 ± 0.71 µM; on 20566-CC (NanA-DSM20566) [6], 2.35 ± 0.16 µM.

With (Streptococcus pneumoniae R6), the Km in series [7] was found to be 24.50 ± 2.71 µM; in series [8], 25.97 ± 2.19 µM.

These data come from article PMC4850393, “Sequence diversity of NanA manifests in distinct enzyme kinetics and inhibitor susceptibility” (Scientific Reports, 2016).
